We go through one molecule from US20090030037A1, “Sustained Release Formulation and Dosing Schedules of Leukotriene Synthesis Inhibitor for Human Therapy” (deCODE Genetics ehf., priority 2005, published 2009).

Common to all, as to type: in vivo, human
For one data set, the system named is sICAM. In words: Study DG-031-201: ICAM (sICAM-1). The following applies: [0%,6%], p=0.03. The protocol: Patients who met the study eligibility criteria were enrolled and randomized into 3 different dose-level groups: (1) 64 patients on 250 mg/day therapy with DG-031 (250 mg q.d.), vs placebo; (2) 64 patients on 500 mg/day therapy with DG-031 (250 mg b.i.d.) vs placebo; and (3) 63 patients on 750 mg/day therapy with DG-031 (250 mg t.i.d.) vs placebo. […] All patients received 3 tablets per day. Treatment periods, 4 weeks in duration each, were separated by a 2-week washout period. The placebo tablets were identical in shape, color, form and taste to the active tablets except that they contained no active drug ingredients. Treatment with DG-031 or placebo was in addition to the subject's standard care, including all medications and treatment plan as prescribed by the subject's cardiologist prior to enrolment. A total of 191 subjects were enrolled, with 172 completing all 8 visits or 8 patients short of the target of 180 patients. […]
All data were analyzed according to a pre-established statistical analysis plan (SAP) and by intention-to-treat (ITT). […] The difference between DG-031 and placebo treatment was the primary outcome, assessed separately for each of the biomarkers. […]

Data set [1] can be described thus: Study DG-031-204: liver function tests (AST, ALT, GGT). The following applies: 500 mg BID or TID. The protocol:
An additional single site, open label study was carried out to obtain biomarker and safety data on additional DG-031 doses (i.e., 1000 mg and 1500 mg). This study examined the safety, tolerability and dose-related effects of DG-031 on inflammatory biomarkers including: LTB4, hsCRP, and MPO. A total of 119 patients with a prior history of CAD and MI were randomized to receive either 1000 mg DG-031 (500 mg BID) or 1500 mg DG-031 (500 mg TID) daily for 4-6 weeks. Treatment with DG-031 in addition to the subject's standard care, medication, and treatment, was prescribed by the patient's cardiologist. A majority of the subjects received statin therapy before, during and after the study. Follow-up assessments were performed 2 weeks after the end of study drug administration.
Liver function tests (AST, ALT, GGT) were assessed weekly during study drug administration and two weeks after dosing. […] Serum creatinine (Cr) was measured weekly during study drug administration and two weeks after dosing. In both the 500 mg BID and 500 mg TID treatment groups, mean serum Cr concentrations increased 4-5% relative to baseline levels. At the 2-week follow up visit, mean serum Cr returned to baseline in the cohort treated for 4 weeks, but remained elevated in the group treated for 6 weeks. Creatine kinase (CK) measurements were obtained weekly during study drug administration and two weeks after dosing.

Data set [2] can be described thus: Effect of high fat meal on DG-031 pharmacokinetics. The following applies: administration with a high fat meal. The protocol: In the context of treatment of a single individual, a steady state concentration may be expected to fluctuate from day-to-day with variations in the individual's diet, level activity, state of health, co-administration of other medications, and the like. DG-031 is preferably administered with food to improve adsorption. […] Alternatively, DG-031 is administered in the absence of food. The decision whether or not to administer with food may be based on the Cmax and Cmin observed following administration of a novel formulation where the Cmax and Cmin fall within the desired range. […] In this context, the steady state concentration for an individual refers to an average concentration taken at multiple time points, to adjust for such fluctuation.

Consider `O=C(O)[C@@H](c1ccc(OCc2ccc3ccccc3n2)cc1)C1CCCC1` [DG-031, (R)-(+)-alpha-cyclopentyl-4-(2-quinolinylmethoxy)-Benzeneacetic acid], for which the “Effect on serum sICAM-1” value with sICAM was “reduced significantly”. The “Mean liver function tests (AST, ALT, GGT)” value in data set [1] is recorded as “No adverse trends”. The half-life entry in data set [2] is on record as “shorter”.
